Patent US7314858B2, “Retrocyclins: antiviral and antimicrobial peptides” (priority 2001, dated 2008)
≈ marks a conversion by molar mass, not a printed value. Like-named read-outs stand apart in the source and are kept apart here. Where a SMILES comes first, the peptide text is derived from it. Bridges are numbered along the chain shown (N, C = ends).

Experiments:
MTT cytotoxicity assay = type: cell-based, human; conditions: human, H9 cells
Experimental: (§1) FIG. 8. Cytotoxicity of antimicrobial peptides against H9 cells. Retrocyclin, RTD-1 and PG-1 (a porcine-derived peptide with anti-HIV-1 activity) were tested for cytotoxicity using an MTT assay for cell proliferation. Note that the EC50 of Retrocyclin and RTD-1 were >100 μg/ml, concentrations well above their antiviral concentration.
(§2) Retrocyclin is not cytotoxic. […] Retrocyclin was not hemolytic for human erythrocytes.

H9 cells = test: MTT cytotoxicity assay; type: cell-based, human; conditions: 100 μg/ml
Experimental: as §1, §2

[1] = system: ME-180 cervical carcinoma cells; conditions: 100 μg/ml
primary HIV-1 isolates = conditions: for IC50: read-out: mean IC50; for IC50 / mean IC50: seven subtype B strains
Source text: Viral isolates. Primary HIV-1 isolates were obtained from Institutional Review Board-approved Centers for Disease Control and Prevention (CDC) Studies or from the National Institutes of Health Research and Reference Reagent Program and World Health Organization collaborative network. Detailed characteristics of the CDC isolates, including subtype determination based on the envelope region, and co-receptor usage using GHOST cell lines have been described elsewhere. For viruses obtained from the NIH Research and Reference Reagent Program, the reported subtype and co-receptor data were used as supplied. Viral stocks were generated by infecting CD8-depleted normal human peripheral blood mononuclear cells. After filtration through 0.22-μm filters, aliquots of the stocks were stored at −70° C. until used.
Reporter gene-based viral replication assay. JC53-BL cells, an HIV-1 reporter cell line derived from HeLa cells that expresses high levels of CD4 and the HIV co-receptors CXCR4 and CCR5, were a gift of Tranzyme Inc. (Birmingham, Ala.). The JC53-BL cells contain cassettes for luciferase and β-galactosidase, each driven by the HIV-1 LTR. HIV infection (tat production) can be detected either by measuring luciferase activity or by counting blue foci after staining the cells with “X-Gal” (5-Bromo-4-chloro-3-indolyl β-D-galactopyranoside), as described elsewhere in detail. The JC53-BL cells were maintained in Dulbecco's modified Eagle medium supplemented with 10% fetal calf serum. (HyClone, Logan, Utah), 2 mM glutamine (Gibco), 100 units per ml penicillin G and 100 μg/ml streptomycin (GIBCO™, Invitrogen Corp., San Diego, Calif.). Viral titers were determined by adding serial dilutions of the virus stocks, in triplicate, to wells containing 20,000 JC53-BL cells, after supplementing the above medium with 40 μg/ml DEAE (diethylaminoethyl)-dextran. After a 48 hour incubation at 37° C. in 5% CO2, the cells were fixed and stained for β galactosidase, and the blue foci were counted with a light microscope. Multiplicity of infection (MOI) values were taken from the infectious unit data.
In vitro infections were carried out in the presence or absence of θ-defensin peptides. Briefly, JC53-BL cells were harvested from T-150 flasks approximately 18 hours prior to starting the assay with 0.1 mM EDTA in 0.017 M PBS, pH 7.4. The cells were washed and transferred to sterile white 96-well plates (Thermo Labsystems, Franklin, Mass.) at a density of 20,000 cells in 50 μl of medium. […] After this 3-hour preincubation with peptides, viruses were added in media containing 40 μg/ml DEAE-dextran. The final volume was 200 μl per well, and the multiplicity of infection (viruses/cell) ranged from 0.009 to 0.65. After the plates had incubated at 37° C. in 5% CO2 for 48 hours, luciferase activity was measured with the Steady-Glo Luciferase Assay System (Promega, Madison, Wis.), using the manufacturer's lysis protocol. Relative light intensity was measured with a Tecan luminometer running Magellan software (Tecan, Research Triangle Park, N.C.) and reported as relative light units (RLU). Each plate contained three sets of quadruplicate controls: media-only (background), virus-only (peptide-free), and recombinant luciferase. Samples were run in duplicate and the % inhibition was calculated from the mean values using the formula: % Inhibition=1−(average RLU peptide+virus wells/average RLU virus only wells)×100.
Fifty-percent inhibitory concentration values (IC50) were calculated using the predicted exponential growth function in Microsoft Excel, which uses known x-y values to estimate a given x value (in this case concentration of peptide) that would correspond to a given y value (in this case IC50). Statistical comparisons were by paired t-tests, unless otherwise noted.

E. coli ML-35p = test: Two-stage radial diffusion assay; type: cell-based, Escherichia coli
Experimental: FIG. 4. Effect of salt on antibacterial activity of circular minidefensins. Human retrocyclin and monkey RTD-1 were tested against our standard lab stains: E. coli ML-35p, P. aeruginosa MR 3007, L. monocytogenes EGD, and S. aureus 930918. The bars show MIC values±SEM values that resulted from 3-6 radial diffusion assays per organism and assay condition.
The effects of NaCl on the antimicrobial activity of retrocyclin and RTD-1, from two-stage radial diffusion assays, are compared in FIG. 4.

[2] = isolate 92BR023, subtype C/B, R5
[3] = isolate 92HT593, Haiti, subtype B, X4
[4] = isolate 92RW009, subtype C/A, R5/X4
[5] = isolate 92UG005, Uganda, subtype D, R5
[6] = isolate 93TH060, Thailand, CRF01-AE, R5
[7] = isolate 93UG053, Uganda, subtype D, R5
[8] = isolate 93US151, USA, subtype B, X4
[9] = isolate 98CN009, China, subtype C, R5
[10] = isolate 98TZ017, Tanzania, subtype C, R5
[11] = isolate 5157-1326, USA, subtype B, R5
[12] = isolate 192431, Nigeria, subtype C, X4
[13] = isolate 193358, Nigeria, subtype C, R5
[14] = isolate 196531, Cameroon, subtype A, R5
[15] = isolate 196554, Senegal, subtype A, R5
[16] = isolate HM14, Thailand, CRF01-AE, X4

SMILES | IC50 (mean±SEM, n=8) (primary HIV-1 isolates) [µg/mL] | IC50 Concentrations (primary HIV-1 isolates; [2]) [µg/mL] | IC50 Concentrations (primary HIV-1 isolates; [3]) [µg/mL] | IC50 Concentrations (primary HIV-1 isolates; [4]) [µg/mL] | IC50 Concentrations (primary HIV-1 isolates; [5]) [µg/mL] | IC50 Concentrations (primary HIV-1 isolates; [6]) [µg/mL] | IC50 Concentrations (primary HIV-1 isolates; [7]) [µg/mL] | IC50 Concentrations (primary HIV-1 isolates; [8]) [µg/mL] | IC50 Concentrations (primary HIV-1 isolates; [9]) [µg/mL] | IC50 Concentrations (primary HIV-1 isolates; [10]) [µg/mL] | IC50 Concentrations (primary HIV-1 isolates; [11]) [µg/mL] | IC50 Concentrations (primary HIV-1 isolates; [12]) [µg/mL] | IC50 Concentrations (primary HIV-1 isolates; [13]) [µg/mL] | IC50 Concentrations (primary HIV-1 isolates; [14]) [µg/mL] | IC50 Concentrations (primary HIV-1 isolates; [15]) [µg/mL] | IC50 Concentrations (primary HIV-1 isolates; [16]) [µg/mL] | IC50 (primary HIV-1 isolates) [nM] | mean IC50 (primary HIV-1 isolates) | further results
CC[C@H](C)[C@@H]1NC(=O)CNC(=O)[C@H](CCCNC(=N)N)NC(=O)CNC(=O)[C@@H]2CSSC[C@H](NC1=O)C(=O)N[C@@H](CCCNC(=N)N)C(=O)N[C@H]1CSSC[C@H](NC(=O)[C@H](CCCNC(=N)N)NC(=O)[C@@H]3CSSC[C@H](NC(=O)[C@H]([C@@H](C)CC)NC1=O)C(=O)NCC(=O)N[C@@H](CCCNC(=N)N)C(=O)NCC(=O)N[C@@H]([C@@H](C)CC)C(=O)N3)C(=O)N[C@@H]([C@@H](C)CC)C(=O)N2 [RC-100, Retrocyclin] (cyclo(GICRCICGRGICRCICGR); disulfide 3-16, 5-14, 7-12) | 7.79 ± 1.16 (≈ 4.06 µM) | 4.71 (≈ 2.46 µM) | 5.73 (≈ 2.99 µM) | 8.72 (≈ 4.55 µM) | 5.18 (≈ 2.7 µM) | 7.39 (≈ 3.85 µM) | 6.38 (≈ 3.33 µM) | 1.69 (≈ 0.881 µM) | >10 | >10 | 4.64 (≈ 2.42 µM) | 5.18 (≈ 2.7 µM) | >10 | >10 | 5.73 (≈ 2.99 µM) | 3.09 (≈ 1.61 µM) | ~2600 | approximately 5.0 μg/ml | hemolysis (human erythrocytes): not hemolytic; EC50 (MTT cytotoxicity assay): > 100 µg/mL; cytotoxicity (MTT) (H9 cells): little to no cytotoxicity; cytotoxicity (MTT) [1]: little to no cytotoxicity; IC50 Concentrations (primary HIV-1 isolates; isolate 92RW024, subtype D/A, R5): 7.78 µg/mL (≈ 4.06 µM); IC50 Concentrations (primary HIV-1 isolates; isolate 92UG037, Uganda, subtype A, R5): 1.44 µg/mL (≈ 0.751 µM); IC50 Concentrations (primary HIV-1 isolates; isolate 92US714, USA, subtype B, R5): >10 µg/mL; IC50 Concentrations (primary HIV-1 isolates; isolate 92US727, USA, subtype B, R5): 6.46 µg/mL (≈ 3.37 µM); IC50 Concentrations (primary HIV-1 isolates; isolate 93UG059, subtype A/D, X4): 6.65 µg/mL (≈ 3.47 µM); IC50 Concentrations (primary HIV-1 isolates; isolate 94UG114, Uganda, subtype D, R5): 3.69 µg/mL (≈ 1.92 µM); IC50 Concentrations (primary HIV-1 isolates; isolate 5148-1382, USA, subtype B, R5): 5.71 µg/mL (≈ 2.98 µM); IC50 Concentrations (primary HIV-1 isolates; isolate 5157-35097, USA, subtype B, R5X4): 6.29 µg/mL (≈ 3.28 µM); IC50 Concentrations (primary HIV-1 isolates; isolate 193317, Nigeria, subtype A, X4): >10 µg/mL; IC50 Concentrations (primary HIV-1 isolates; isolate RU132, Russia, subtype G, R5): 5.27 µg/mL (≈ 2.75 µM); IC50 Concentrations (primary HIV-1 isolates; isolate RU570, subtype G, R5): 8.63 µg/mL (≈ 4.5 µM); effect of salt on antimicrobial activity (E. coli ML-35p; hypersalinity (175 mM NaCl)): only modestly inhibitory; antimicrobial activity (E. coli ML-35p; physiological (100 mM) NaCl): strong activity
CC[C@H](C)[C@@H]1NC(=O)CNC(=O)[C@H](CCCCN)NC(=O)CNC(=O)[C@@H]2CSSC[C@H](NC1=O)C(=O)N[C@@H](CCCNC(=N)N)C(=O)N[C@H]1CSSC[C@H](NC(=O)[C@H](CCCNC(=N)N)NC(=O)[C@@H]3CSSC[C@H](NC(=O)[C@H]([C@@H](C)CC)NC1=O)C(=O)NCC(=O)N[C@@H](CCCNC(=N)N)C(=O)NCC(=O)N[C@@H]([C@@H](C)CC)C(=O)N3)C(=O)N[C@@H]([C@@H](C)CC)C(=O)N2 [RC-101, R9K-Retrocyclin] | 2.93 ± 0.95 (≈ 1.55 µM) | 3.04 (≈ 1.61 µM) | 0.76 (≈ 0.402 µM) | 2.72 (≈ 1.44 µM) | 1 (≈ 0.529 µM) | 2.15 (≈ 1.14 µM) | 1.54 (≈ 0.815 µM) | 0.49 (≈ 0.259 µM) | 8.53 (≈ 4.51 µM) | 4.87 (≈ 2.58 µM) | 3.59 (≈ 1.9 µM) | 0.54 (≈ 0.286 µM) | 2.75 (≈ 1.45 µM) | 2.65 (≈ 1.4 µM) | 0.51 (≈ 0.27 µM) | 0.84 (≈ 0.444 µM) | < 660 | < 1.25 µg/mL | protective activity compared with retrocyclin-1 (primary HIV-1 isolates): more active than retrocyclin-1; protective activity compared with retrocyclin-1 (primary HIV-1 isolates; subtype D strains, 1.25, 2.5, 5 and 10 μg/ml): more active than retrocyclin-1; protective activity compared with retrocyclin-1 (primary HIV-1 isolates; subtype G and various recombinant viruses): greater protection than retrocyclin-1
